Like-named read-outs stand apart in the source and are kept apart here.
How the values were obtained:
CDK2/CCNE1 = CDK2/CCNE1 (Homo sapiens, UniProt P24941); assay: CDK2 homogeneous time-resolved fluorescence (HTRF) kinase assay; format: biochemical; conditions: CDK2/CCNE
Procedure: (§1) A CDK homogeneous time-resolved fluorescence (HTRF) assay was used to assess the potency of the compounds described herein.
(§2) To an untreated 384-well microtiter plate (ProxiPlate) was added 100 nL 100×test compound in DMSO and 5 μL 2×CDK enzyme in assay buffer (50 mM HEPES, 1 mM EGTA, 10 mM MgCl2, 0.01% Tween 20, 2 mM DTT). The plate was centrifuged at 800 RPM for 1 min then incubated for 20 min at 23 °C. 2.5 μL per well of 4×ATP and 2.5 μL 4×ULight™-eIF4E-binding protein 1 (Thr37/46) Peptide substrate were added to all wells. After addition, the plates were centrifuged at 800 RPM for 1 min. The plates were incubated at 23 °C for 60 min. 5 μL per well 4×EDTA solution were added to each well to stop the reaction. 5 μL 4×LANCE Ultra Europium-anti-phospho-eIF4E-binding protein 1 (Thr37/46) antibody were added to each well and the plate was centrifuged for 1 min at 800 RPM. The plate was incubated for 60 min at 23 °C. Fluorescence was read at 340 nm excitation and 665 nm emission on an En Vision 2105 fluorescence reader. The final concentrations of reagents in the activity assay were 3 nM CDK2/CCNE1, 1 mM ATP, 50 nM ULight™-eIF4E-binding protein 1 (Thr37/46) Peptide substrate, 1% DMSO, 10 mM EDTA, and 2 nM LANCE Ultra Europium-anti-phospho-eIF4E-binding protein 1 (Thr37/46).
(§3) Dose-response titrations were conducted by using an 11-point, half-logarithmic serial dilution scheme typically starting at 10 μM. Signals were reported as fluorescence units at 665 nm or the ratio of fluorescence units at 665 nm/fluorescence units at 615 nm. Signals are referred to below as “Lance signals”.
(§4) Using this assay, the IC50 values of example compounds were determined. Table 3 illustrates the IC50 for various Example compounds of Formula IA. Table 4 illustrates the IC50 for various other Example compounds of Formula I. ND=not determined.

CDK1/CCNB1 = CDK1/CCNB1 (Homo sapiens, UniProt P06493); assay: CDK1 homogeneous time-resolved fluorescence (HTRF) kinase assay; format: biochemical; conditions: CDK1/CCNB
Procedure: as §1
as §2, with “were 0.5” for “were 3”, “nM CDK1/CCNB1,” for “nM CDK2/CCNE1,”
as §3, §4

[1] = 25-250 nM marked x, read-out: CDK2/CCNE IC50 25-250 nM
[2] = >250 nM marked x, read-out: CDK1/CCNB IC50 >250 nM
[3] = >250 nM marked x, read-out: CDK2/CCNE IC50 >250 nM
[4] = <25 nM, read-out: CDK2/CCNE IC50 <25 nM

CDK1/CCNB1, sequence (P06493 whole entry): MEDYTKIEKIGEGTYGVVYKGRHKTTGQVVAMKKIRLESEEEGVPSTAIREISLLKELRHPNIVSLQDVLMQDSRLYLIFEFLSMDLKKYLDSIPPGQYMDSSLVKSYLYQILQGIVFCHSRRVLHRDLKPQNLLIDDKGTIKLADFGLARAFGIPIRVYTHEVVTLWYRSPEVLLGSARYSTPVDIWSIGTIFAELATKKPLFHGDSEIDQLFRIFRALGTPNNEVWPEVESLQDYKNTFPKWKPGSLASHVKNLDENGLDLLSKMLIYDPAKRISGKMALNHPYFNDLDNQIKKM
CDK1/CCNB1, sequence (P14635 whole entry partner): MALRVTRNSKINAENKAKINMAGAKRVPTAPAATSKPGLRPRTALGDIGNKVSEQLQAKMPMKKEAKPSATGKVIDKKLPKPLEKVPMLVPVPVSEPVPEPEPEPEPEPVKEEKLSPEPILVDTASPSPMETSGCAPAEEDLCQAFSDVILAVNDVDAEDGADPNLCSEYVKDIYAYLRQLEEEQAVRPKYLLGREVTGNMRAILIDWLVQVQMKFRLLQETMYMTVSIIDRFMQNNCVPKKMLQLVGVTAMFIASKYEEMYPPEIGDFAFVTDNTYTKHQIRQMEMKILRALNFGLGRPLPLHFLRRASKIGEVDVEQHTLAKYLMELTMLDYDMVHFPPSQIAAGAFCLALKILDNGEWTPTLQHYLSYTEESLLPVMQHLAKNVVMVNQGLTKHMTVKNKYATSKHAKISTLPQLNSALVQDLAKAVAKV

SMILES | IC50 (CDK2/CCNE1; [1]) [nM] | IC50 (CDK1/CCNB1; [2]) [nM] | IC50 (CDK2/CCNE1; [3]) [nM] | IC50 (CDK2/CCNE1; [4]) [nM] | IC50 (CDK1/CCNB1; <25 nM, read-out: CDK1/CCNB IC50 <25 nM) [nM]
CS(=O)(=O)N1CCC(Nc2cc3c(-c4cnc(N)nc4)nccc3cn2)CC1 [Ex 66, 5-(2-aminopyrimidin-5-yl)-N-(1-(methylsulfonyl)piperidin-4-yl)-2,6-naphthyridin-3-amine] |  | > 250 | > 250 |  | 
CS(=O)(=O)N1CCC(Nc2cc3c(-c4ccc(CN5CCOCC5)cc4)nccc3cn2)CC1 [Ex 84, N-(1-(methylsulfonyl)piperidin-4-yl)-5-(4-(morpholinomethyl)phenyl)-2,6-naphthyridin-3-amine] | 25 to 250 | > 250 |  |  | 
COc1ncc(-c2nccc3cnc(NC4CCN(S(C)(=O)=O)CC4)cc23)cn1 [Ex 85, 5-(2-methoxypyrimidin-5-yl)-N-(1-(methylsulfonyl)piperidin-4-yl)-2,6-naphthyridin-3-amine] |  | > 250 | > 250 |  | 
CS(=O)(=O)N1CCC(Nc2cc3c(C(=O)NC4CC4)nccc3cn2)CC1 [Ex 93, N-cyclopropyl-7-((1-(methylsulfonyl)piperidin-4-yl)amino)-2,6-naphthyridine-1-carboxamide] |  | > 250 | > 250 |  | 
C=CS(=O)(=O)N1CCC(Nc2cc3c(-c4cnn(C)c4)nccc3cn2)CC1 [Ex 108, 5-(1-methyl-1H-pyrazol-4-yl)-N-(1-(vinylsulfonyl)piperidin-4-yl)-2,6-naphthyridin-3-amine] | 25 to 250 | > 250 |  |  | 
CS(=O)(=O)N1CCC(Nc2cc3c(N4CCCCC4)nc(C(F)F)cc3cn2)CC1 [Ex 118, 7-(difluoromethyl)-N-(1-(methylsulfonyl)piperidin-4-yl)-5-(piperidin-1-yl)-2,6-naphthyridin-3-amine] | 25 to 250 | > 250 |  |  | 
CS(=O)(=O)N1CCC(Nc2cc3c(N4CCCCC4)nc(CCl)cc3cn2)CC1 [Ex 119, 7-(chloromethyl)-N-(1-(methylsulfonyl)piperidin-4-yl)-5-(piperidin-1-yl)-2,6-naphthyridin-3-amine] |  | > 250 | > 250 |  | 
Cn1cc(-c2nccc3cnc(Nc4ccc(S(C)(=O)=O)cc4)cc23)nn1 [Ex 125, 5-(1-methyl-1H-1,2,3-triazol-4-yl)-N-(4-(methylsulfonyl)phenyl)-2,6-naphthyridin-3-amine] | 25 to 250 | > 250 |  |  | 
CS(=O)(=O)c1ccc(Nc2cc3c(-c4ccc5[nH]cnc5c4)nccc3cn2)cc1 [Ex 126, 5-(1H-benzo[d]imidazol-5-yl)-N-(4-(methylsulfonyl)phenyl)-2,6-naphthyridin-3-amine] | 25 to 250 | > 250 |  |  | 
CS(=O)(=O)c1ccc(Nc2cc3c(-c4cc5cc[nH]c5cn4)nccc3cn2)cc1 [Ex 135, N-(4-(methylsulfonyl)phenyl)-5-(1H-pyrrolo[2,3-c]pyridin-5-yl)-2,6-naphthyridin-3-amine] | 25 to 250 | > 250 |  |  | 
Cn1nncc1-c1nccc2cnc(Nc3ccc(S(C)(=O)=O)cc3)cc12 [Ex 144, 5-(1-methyl-1H-1,2,3-triazol-5-yl)-N-(4-(methylsulfonyl)phenyl)-2,6-naphthyridin-3-amine] |  | > 250 | > 250 |  | 

Other lines, results leading:

IC50 (CDK2/CCNE1; [1]) [nM] | IC50 (CDK1/CCNB1; [2]) [nM] | IC50 (CDK2/CCNE1; [3]) [nM] | IC50 (CDK2/CCNE1; [4]) [nM] | IC50 (CDK1/CCNB1; <25 nM, read-out: CDK1/CCNB IC50 <25 nM) [nM] | SMILES
25 to 250 | > 250 |  |  |  | CS(=O)(=O)N1CCC(Nc2cc3c(-c4ccc(C(F)(F)F)nc4)nccc3cn2)CC1 [Ex 62, N-(1-(methylsulfonyl)piperidin-4-yl)-5-(6-(trifluoromethyl)pyridin-3-yl)-2,6-naphthyridin-3-amine]
25 to 250 | > 250 |  |  |  | CS(=O)(=O)N1CCC(Nc2cc3c(-c4cccnc4)nccc3cn2)CC1 [Ex 67, N-(1-(methylsulfonyl)piperidin-4-yl)-5-(pyridin-3-yl)-2,6-naphthyridin-3-amine]
25 to 250 | > 250 |  |  |  | CS(=O)(=O)N1CCC(Nc2cc3c(/C(C#N)=C/O)nccc3cn2)CC1 [Ex 80, (Z)-3-hydroxy-2-(7-((1-(methylsulfonyl)piperidin-4-yl)amino)-2,6-naphthyridin-1-yl)acrylonitrile]
25 to 250 | > 250 |  |  |  | CS(=O)(=O)N1CCC(Nc2cc3c(-c4ccncc4)nccc3cn2)CC1 [Ex 83, N-(1-(methylsulfonyl)piperidin-4-yl)-5-(pyridin-4-yl)-2,6-naphthyridin-3-amine]
 | > 250 | > 250 |  |  | CS(=O)(=O)N1CCC(Nc2cc3c(-c4ccc(C(=O)O)cc4)nccc3cn2)CC1 [Ex 86, 4-(7-((1-(methylsulfonyl)piperidin-4-yl)amino)-2,6-naphthyridin-1-yl)benzoic acid]
25 to 250 | > 250 |  |  |  | CS(=O)(=O)N1CCC(Nc2cc3c(-c4cnc5[nH]ccc5c4)nccc3cn2)CC1 [Ex 88, N-(1-(methylsulfonyl)piperidin-4-yl)-5-(1H-pyrrolo[2,3-b]pyridin-5-yl)-2,6-naphthyridin-3-amine]
 | > 250 |  | < 25 |  | C=CS(=O)(=O)N1CCC(Nc2cc3c(N4CCC(O)CC4)nccc3cn2)CC1 [Ex 105, 1-(7-((1-(vinylsulfonyl)piperidin-4-yl)amino)-2,6-naphthyridin-1-yl)piperidin-4-ol]
25 to 250 | > 250 |  |  |  | C=CS(=O)(=O)N1CCC(Nc2cc3c(-c4ccc(C#N)nc4)nccc3cn2)CC1 [Ex 109, 5-(7-((1-(vinylsulfonyl)piperidin-4-yl)amino)-2,6-naphthyridin-1-yl)picolinonitrile]
 |  |  | < 25 | < 25 | N#CC1CCN(c2nccc3cnc(Nc4ccc(C(=O)ON5C(=O)CCC5=O)cc4)cc23)CC1 [Ex 110, 2,5-dioxopyrrolidin-1-yl 4-((5-(4-cyanopiperidin-1-yl)-2,6-naphthyridin-3-yl)amino)benzoate]
25 to 250 | > 250 |  |  |  | N#CC1CCN(c2nccc3cnc(Nc4cccc(C(=O)ON5C(=O)CCC5=O)c4)cc23)CC1 [Ex 111, 2,5-dioxopyrrolidin-1-yl 3-((5-(4-cyanopiperidin-1-yl)-2,6-naphthyridin-3-yl)amino)benzoate]
25 to 250 | > 250 |  |  |  | N#CC1CCN(c2nccc3cnc(Nc4ccc(C=O)cc4)cc23)CC1 [Ex 128, 1-(7-((4-formylphenyl)amino)-2,6-naphthyridin-1-yl)piperidine-4-carbonitrile]
25 to 250 | > 250 |  |  |  | N#CC1CCN(c2nccc3cnc(Nc4ccc(CO)cc4)cc23)CC1 [Ex 132, 1-(7-((4-(hydroxymethyl)phenyl)amino)-2,6-naphthyridin-1-yl)piperidine-4-carbonitrile]
25 to 250 | > 250 |  |  |  | N#CC1CCN(c2nccc3cnc(Nc4ccc(CCO)cc4)cc23)CC1 [Ex 133, 1-(7-((4-(2-hydroxyethyl)phenyl)amino)-2,6-naphthyridin-1-yl)piperidine-4-carbonitrile]
25 to 250 | > 250 |  |  |  | N#CC1CCN(c2nccc3cnc(Nc4cccc(CO)c4)cc23)CC1 [Ex 134, 1-(7-((3-(hydroxymethyl)phenyl)amino)-2,6-naphthyridin-1-yl)piperidine-4-carbonitrile]
25 to 250 | > 250 |  |  |  | N#CC1CCN(c2nccc3cnc(Nc4cccc(C=O)c4)cc23)CC1 [Ex 140, 1-(7-((3-formylphenyl)amino)-2,6-naphthyridin-1-yl)piperidine-4-carbonitrile]
25 to 250 | > 250 |  |  |  | N#CC1CCN(c2nccc3cnc(Nc4cccc(CCO)c4)cc23)CC1 [Ex 143, 1-(7-((3-(2-hydroxyethyl)phenyl)amino)-2,6-naphthyridin-1-yl)piperidine-4-carbonitrile]
